Test results published in ChEMBL document CHEMBL1681785, “Structure-activity relationships of flavonoids as inhibitors of breast cancer resistance protein (BCRP)” (Bioorg Med Chem, 2011).
Active and inactive are the calls of the source. The rule behind the calls is not given here.

Legend:
MCF7 [1] = experiment: Cytotoxicity against human MCF7 cells assessed as intracellular ATP level after 72 hrs by luminometry; assay type: functional, cell-based; conditions: MCF7, 72 h
A2780 [2] = experiment: Cytotoxicity against human A2780 cells assessed as intracellular ATP level after 72 hrs by luminometry; assay type: functional, cell-based; conditions: A2780, 72 h
A2780 [3] = experiment: Cytotoxicity against human A2780 cells assessed as intracellular ATP level at 10 uM after 72 hrs by luminometry; assay type: functional, cell-based
[4] = biological target: ATP-dependent translocase ABCB1 (Homo sapiens, UniProt P08183); experiment: Inhibition of MDR1 expressed in MDCK cells using rhodamine 123 staining by flow cytometry; assay type: cell-based
Chain of ATP-dependent translocase ABCB1 (P08183 whole entry): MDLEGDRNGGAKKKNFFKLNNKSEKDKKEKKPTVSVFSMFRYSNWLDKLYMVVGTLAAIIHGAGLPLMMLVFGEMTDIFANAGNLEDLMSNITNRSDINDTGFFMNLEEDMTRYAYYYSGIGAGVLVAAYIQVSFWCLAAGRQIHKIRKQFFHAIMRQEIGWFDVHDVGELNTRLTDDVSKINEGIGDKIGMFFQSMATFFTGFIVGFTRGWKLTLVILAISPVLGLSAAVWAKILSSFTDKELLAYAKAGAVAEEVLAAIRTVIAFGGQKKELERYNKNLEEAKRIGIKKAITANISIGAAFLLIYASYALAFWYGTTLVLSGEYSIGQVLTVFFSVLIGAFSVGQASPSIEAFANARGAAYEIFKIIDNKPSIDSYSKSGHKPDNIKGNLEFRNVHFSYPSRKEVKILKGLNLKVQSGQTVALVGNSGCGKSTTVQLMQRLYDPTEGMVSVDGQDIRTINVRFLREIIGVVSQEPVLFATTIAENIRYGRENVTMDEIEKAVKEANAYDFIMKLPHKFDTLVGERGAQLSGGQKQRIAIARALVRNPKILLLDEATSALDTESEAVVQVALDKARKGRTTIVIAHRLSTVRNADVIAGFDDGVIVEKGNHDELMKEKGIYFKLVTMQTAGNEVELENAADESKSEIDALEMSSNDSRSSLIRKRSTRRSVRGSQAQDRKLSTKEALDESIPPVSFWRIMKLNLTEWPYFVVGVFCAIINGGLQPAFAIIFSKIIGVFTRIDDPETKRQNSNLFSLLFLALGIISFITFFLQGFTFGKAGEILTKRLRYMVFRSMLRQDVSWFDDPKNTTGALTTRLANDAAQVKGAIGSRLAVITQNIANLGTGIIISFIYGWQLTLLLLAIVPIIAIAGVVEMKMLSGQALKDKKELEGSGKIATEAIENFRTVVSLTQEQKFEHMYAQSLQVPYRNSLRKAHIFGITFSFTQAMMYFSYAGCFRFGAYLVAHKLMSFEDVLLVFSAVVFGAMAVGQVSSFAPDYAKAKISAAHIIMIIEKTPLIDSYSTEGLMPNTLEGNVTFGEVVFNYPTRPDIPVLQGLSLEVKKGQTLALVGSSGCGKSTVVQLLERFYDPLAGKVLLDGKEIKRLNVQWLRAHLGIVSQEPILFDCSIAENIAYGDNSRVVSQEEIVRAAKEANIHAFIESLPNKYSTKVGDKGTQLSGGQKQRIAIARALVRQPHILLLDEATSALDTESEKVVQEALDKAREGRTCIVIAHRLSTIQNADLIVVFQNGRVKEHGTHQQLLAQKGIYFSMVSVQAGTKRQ

[5] = biological target: T1, Broad substrate specificity ATP-binding cassette transporter ABCG2 (Homo sapiens, UniProt Q9UNQ0); experiment: Inhibition of BCRP expressed in MCF-7 MX cells using Hoechst 33342 staining; assay type: cell-based, MCF7; conditions: read-out: IC50
T1 sequence (Q9UNQ0 whole entry): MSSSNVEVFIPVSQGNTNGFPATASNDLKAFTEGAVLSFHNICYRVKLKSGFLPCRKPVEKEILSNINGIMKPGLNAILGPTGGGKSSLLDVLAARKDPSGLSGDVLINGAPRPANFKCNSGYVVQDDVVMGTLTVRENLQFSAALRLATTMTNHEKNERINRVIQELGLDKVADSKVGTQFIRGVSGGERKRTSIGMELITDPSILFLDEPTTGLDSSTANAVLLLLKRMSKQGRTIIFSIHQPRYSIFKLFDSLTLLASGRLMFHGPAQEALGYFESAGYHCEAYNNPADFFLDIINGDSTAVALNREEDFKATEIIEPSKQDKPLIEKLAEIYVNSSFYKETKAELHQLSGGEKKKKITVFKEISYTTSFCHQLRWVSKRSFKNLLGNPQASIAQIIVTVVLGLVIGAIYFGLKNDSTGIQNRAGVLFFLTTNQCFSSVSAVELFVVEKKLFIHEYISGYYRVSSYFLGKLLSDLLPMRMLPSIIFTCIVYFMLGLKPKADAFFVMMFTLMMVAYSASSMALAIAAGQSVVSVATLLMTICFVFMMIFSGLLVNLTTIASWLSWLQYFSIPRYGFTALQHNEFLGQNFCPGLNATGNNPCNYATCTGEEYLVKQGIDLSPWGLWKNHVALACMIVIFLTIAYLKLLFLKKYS

[6] = Inhibition of P-gp expressed in A2780adr cells by calcein AM accumulation assay; assay type: cell-based; conditions: A2780 ADR
A2780 ADR = experiment: Inhibition of P-gp expressed in A2780adr cells at 10 uM by calcein AM accumulation assay relative to verapamil; assay type: cell-based
[7] = biological target: T1, Broad substrate specificity ATP-binding cassette transporter ABCG2; experiment: Inhibition of BCRP expressed in MDCK cells using Hoechst 33342 staining; assay type: cell-based; conditions: read-out: IC50
MCF7 [8] = experiment: Cytotoxicity against human MCF7 cells assessed as intracellular ATP level at 10 uM after 72 hrs by luminometry; assay type: functional, cell-based
[9] = biological target: Multidrug resistance-associated protein 1 (Homo sapiens, UniProt P33527); experiment: Inhibition of MRP1 expressed in human 2008 cells assessed as calcein AM accumulation by cell based assay
Chain of Multidrug resistance-associated protein 1 (P33527 whole entry): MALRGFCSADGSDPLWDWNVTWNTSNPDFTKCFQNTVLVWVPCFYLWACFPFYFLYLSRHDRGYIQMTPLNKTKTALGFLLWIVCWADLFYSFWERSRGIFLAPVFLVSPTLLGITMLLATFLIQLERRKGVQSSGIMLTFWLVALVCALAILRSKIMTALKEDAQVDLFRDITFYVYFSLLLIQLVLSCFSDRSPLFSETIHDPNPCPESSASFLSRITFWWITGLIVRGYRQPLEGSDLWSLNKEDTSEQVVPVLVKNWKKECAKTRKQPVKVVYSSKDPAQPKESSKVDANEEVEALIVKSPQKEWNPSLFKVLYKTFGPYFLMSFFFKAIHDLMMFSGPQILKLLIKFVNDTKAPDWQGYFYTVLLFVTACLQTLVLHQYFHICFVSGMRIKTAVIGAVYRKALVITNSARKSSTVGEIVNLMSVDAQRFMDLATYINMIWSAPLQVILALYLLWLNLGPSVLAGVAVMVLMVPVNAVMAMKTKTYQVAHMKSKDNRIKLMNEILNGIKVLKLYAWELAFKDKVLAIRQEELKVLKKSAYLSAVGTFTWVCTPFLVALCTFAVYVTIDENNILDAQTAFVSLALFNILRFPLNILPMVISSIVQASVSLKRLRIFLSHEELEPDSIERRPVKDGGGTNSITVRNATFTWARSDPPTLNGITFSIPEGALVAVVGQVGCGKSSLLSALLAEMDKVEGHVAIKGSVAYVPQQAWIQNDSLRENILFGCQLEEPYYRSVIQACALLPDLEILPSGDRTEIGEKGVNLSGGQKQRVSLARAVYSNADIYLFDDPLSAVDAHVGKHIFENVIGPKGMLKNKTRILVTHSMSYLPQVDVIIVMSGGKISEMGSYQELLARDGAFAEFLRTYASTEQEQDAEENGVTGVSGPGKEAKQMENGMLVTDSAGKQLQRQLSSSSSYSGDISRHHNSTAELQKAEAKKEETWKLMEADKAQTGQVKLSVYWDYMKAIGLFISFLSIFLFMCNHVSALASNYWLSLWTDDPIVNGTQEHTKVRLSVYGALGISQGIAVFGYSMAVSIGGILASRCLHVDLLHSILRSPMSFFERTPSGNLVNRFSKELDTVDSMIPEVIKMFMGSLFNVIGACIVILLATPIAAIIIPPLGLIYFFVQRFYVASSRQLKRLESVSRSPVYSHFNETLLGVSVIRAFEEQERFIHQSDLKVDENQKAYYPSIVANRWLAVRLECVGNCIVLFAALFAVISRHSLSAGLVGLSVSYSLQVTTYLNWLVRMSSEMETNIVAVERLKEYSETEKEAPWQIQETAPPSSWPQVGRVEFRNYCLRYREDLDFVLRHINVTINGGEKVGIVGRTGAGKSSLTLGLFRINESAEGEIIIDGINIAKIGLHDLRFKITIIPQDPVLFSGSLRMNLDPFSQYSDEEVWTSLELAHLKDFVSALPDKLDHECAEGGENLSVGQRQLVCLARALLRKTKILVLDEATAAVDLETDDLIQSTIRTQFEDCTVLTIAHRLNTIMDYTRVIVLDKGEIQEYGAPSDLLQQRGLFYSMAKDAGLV

COc1cccc2c1C(=O)c1c(O)c3c(c(O)c1C2=O)C[C@@](O)(C(=O)CO)C[C@@H]3O[C@H]1C[C@H](N)[C@H](O)[C@H](C)O1 [DOXORUBICIN]
IC50 (MCF7 [1]): 0.1 µM | IC50 (A2780 [2]; read-out: IC50): 0.044 µM

COC1=C(OC)[C@]2(OC)c3c(OC)c(OC)c4c(c3O[C@@]23O[C@@H](c2ccccc2)CC=C3C1=O)[C@@H](O)C[C@H](c1ccccc1)O4 [NEOCALYCOPTERON]
Activity (A2780 [3]): Active | IC50 [4]: 8 µM | IC50 [5]: 15 µM | IC50 (MCF7 [1]): 2.4 µM | IC50 (A2780 [2]; read-out: IC50): 2.4 µM | IC50 [6]: 12 µM | inhibition (A2780 ADR): inactive | IC50 [7]: 11 µM | Activity (MCF7 [8]): Active

COc1cc(O)c2c(=O)c(OC)c(-c3ccc(OC)c(O)c3)oc2c1 [AYANIN]
Activity (A2780 [3]): inactive | IC50 [9]: 50 µM | IC50 [4]: 13 µM | IC50 [5]: 0.68 µM | IC50 [6]: 9.4 µM | inhibition (A2780 ADR): inactive | IC50 [7]: 0.46 µM | Activity (MCF7 [8]): inactive

COc1ccc2c(c1)c(CC(=O)O)c(C)n2C(=O)c1ccc(Cl)cc1 [INDOMETHACIN]
IC50 [9]: 12.6 µM

COC1=C(OC)[C@]2(OC)c3c(OC)c(OC)c4c(c3O[C@@]23O[C@@H](c2ccccc2)CC=C3C1=O)[C@@H](OC)C[C@H](c1ccccc1)O4
Activity (A2780 [3]): Active | IC50 [4]: 1.4 µM | IC50 [5]: 47 µM | IC50 (MCF7 [1]): 1.9 µM | IC50 (A2780 [2]; read-out: IC50): 1.7 µM | IC50 (A2780 [2]; read-out: pIC50 (converted)): 2.14 µM | IC50 [6]: 1.7 µM | inhibition (A2780 ADR): inactive | IC50 [7]: 16 µM | Activity (MCF7 [8]): Active

COc1c2c(c3c(c1OC)[C@@]1(OC)C4=C(C(=O)[C@H](OC)[C@@]1(OC)O3)[C@H](OC)C[C@@H](c1ccccc1)O4)[C@H](O)C[C@@H](c1ccccc1)O2 [CALYFLORENON B]
Activity (A2780 [3]): Active | IC50 [4]: 8 µM | IC50 [5]: 40 µM | IC50 (MCF7 [1]): 15 µM | IC50 (A2780 [2]; read-out: IC50): 11 µM | IC50 [6]: 5.6 µM | inhibition (A2780 ADR): inactive | IC50 [7]: 29 µM | Activity (MCF7 [8]): Active

COc1cc(O)c2c(=O)c(OC)c(-c3ccc(OC)c(OC)c3)oc2c1 [RETUSIN]
Activity (A2780 [3]): inactive | IC50 [9]: 50 µM | IC50 [4]: 16 µM | IC50 [5]: 0.9 µM | IC50 [6]: 12 µM | inhibition (A2780 ADR): inactive | IC50 [7]: 0.39 µM | Activity (MCF7 [8]): inactive
